How the values were obtained:
[1] = test system: CYP3A4; conditions: human hepatocytes; cited from earlier work
[2] = test system: PXR target genes (CYP3A11, GSTA1, MRP2, OATP2); test: qPCR analysis of PXR target genes in WT mice; format: in vivo, wild-type (WT) mice
[3] = target: T1, PPARα (Mus musculus, UniProt P23204); test: Cell-based reporter assay, transfected HCT116 cells, dual luciferase; conditions: 10 μM, 24 h
T1 construct: expressed in transfected cells; host or cells: HCT116
T1 sequence (P23204 1-468): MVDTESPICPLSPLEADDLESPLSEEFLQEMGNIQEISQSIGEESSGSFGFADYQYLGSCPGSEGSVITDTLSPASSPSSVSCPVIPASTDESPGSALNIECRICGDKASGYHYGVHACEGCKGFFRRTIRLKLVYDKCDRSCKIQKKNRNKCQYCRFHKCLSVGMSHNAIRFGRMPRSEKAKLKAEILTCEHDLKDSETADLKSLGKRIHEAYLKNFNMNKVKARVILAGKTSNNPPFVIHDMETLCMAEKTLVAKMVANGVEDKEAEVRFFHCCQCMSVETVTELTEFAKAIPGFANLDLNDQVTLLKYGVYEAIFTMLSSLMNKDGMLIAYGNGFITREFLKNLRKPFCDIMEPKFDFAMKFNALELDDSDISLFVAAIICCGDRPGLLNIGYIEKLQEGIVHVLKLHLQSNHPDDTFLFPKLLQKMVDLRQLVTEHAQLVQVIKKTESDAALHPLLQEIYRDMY
Method: (§1) A hepG2 cell line (DPX2) with stable expression of recombinant human PXR and a PXR-response element cloned in a luciferase vector was obtained from Puracyp Inc. (Carlsbad, Calif.). The construction and validation of the cell lines were reported previously (Yueh et al., 2005). The cells were seeded according to the distributor's instruction. […] The activation of PXR was determined by measuring the firefly luciferase activity 24 h later, followed by normalization of luciferase activity by protein concentrations. For cell-based reporter assay of nuclear receptors CAR, PPARα, PPARγ, and FXR, HCT116 cells were plated on 24-well plates (5×10^4 cells/well, cultured in DMEM containing 10% FBS), and transfected with the various expression vectors using Fugene transfection reagent (Roche, Indianapolis, Ind.). The mouse PPAR and CAR vectors were described in previous reports (Kliewer et al., 1992; Swales et al., 2005). The mouse FXR vector was provided by Dr Christopher J. Sinal. […] TCPOBOP (250 nM), Wy-14,643 (10 μM), rosiglitazone (10 μM), and GW4064 (25 μM) were used as positive controls respectively for mouse CAR, PPARα, PPARγ, and FXR. A standard dual luciferase assay was used and normalized to a cotransfected control reporter (Promega, Madison, Wis.). Each in vitro assay was repeated at least three times.

[4] = target: T2, FXR (Mus musculus, UniProt Q60641); test: as above; conditions: 10 μM, 24 h
T2 construct: expressed in transfected cells; host or cells: HCT116
T2 sequence (Q60641 1-488): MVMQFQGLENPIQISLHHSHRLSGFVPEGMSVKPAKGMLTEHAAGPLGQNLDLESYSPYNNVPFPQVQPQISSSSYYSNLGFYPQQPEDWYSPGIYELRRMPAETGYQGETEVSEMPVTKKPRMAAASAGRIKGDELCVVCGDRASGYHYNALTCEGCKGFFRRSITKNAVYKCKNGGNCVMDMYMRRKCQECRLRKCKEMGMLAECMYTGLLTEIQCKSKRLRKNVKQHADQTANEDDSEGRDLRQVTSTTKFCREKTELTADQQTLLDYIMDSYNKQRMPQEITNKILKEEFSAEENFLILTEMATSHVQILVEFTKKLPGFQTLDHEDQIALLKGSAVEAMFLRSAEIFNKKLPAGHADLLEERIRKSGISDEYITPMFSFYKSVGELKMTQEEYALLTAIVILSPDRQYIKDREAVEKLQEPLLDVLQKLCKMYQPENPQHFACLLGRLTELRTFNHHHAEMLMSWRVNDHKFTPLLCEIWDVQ
Method: as §1

[5] = test system: PXR target genes (CYP3A11, GSTA1, MRP2, OATP2); test: qPCR analysis of PXR target genes in hPXR mice
Method: RIF, a specific human PXR ligand, was used as positive control at 25 mg/kg/day (p.o.) for 3 days. […] Liver and small intestine were collected and frozen at −80° C. for further analysis.
RNA was extracted from different tissues using TRIzol reagent (Invitrogen, Carlsbad, Calif.). qPCR was performed using cDNA generated from 1 μg total RNA with SuperScript II Reverse Transcriptase kit (Invitrogen). PCR reactions were carried out using SYBR green PCR master mix (SuperArray) in an ABI Prism 7900HT Sequence Detection System (Applied Biosystems, Foster City, Calif.). Values were quantified using the Comparative CT method, and samples normalized to β-actin.

[6] = test system: CYP3A; test: Pharmacokinetics of MDZ in hPXR mice pretreated with RIFax; conditions: hPXR mice, RIFax 10 mg/kg/day 3 days, MDZ 2.5 mg/kg oral
Method: Blood samples were collected from suborbital veins using heparinized tubes at pre-dose, 5, 10, 20, 30, 60, and 90 min after administration of MDZ. Serum was separated by centrifugation at 8,000 g for 10 min. For MDZ and 1′-OH-MDZ extraction, 50 μl of serum was mixed with 150 μl of phosphate-buffered saline, 200 μl of ethyl acetate, and 200 μl of methyl t-butyl ether. The mixture was centrifuged at 3,000 rpm for 5 min at 4° C. The organic layer was then transferred to a new tube, dried with N2, and reconstituted in 100 μl of 70% aqueous methanol and 30% H2O containing 0.1% formic acid. […] Pharmacokinetic parameters for MDZ and 1′-OH-MDZ were estimated from the plasma concentration-time data by a non-compartmental approach using WinNonlin (Pharsight, Mountain View, Calif.). The area under the serum concentration-time curve (AUC0-90 min) was calculated by the trapezoidal rule. The maximum concentration in serum (Cmax) and its corresponding time (Tmax) were obtained from the original data.

[7] = Intestinal tract distribution of RIF and RIFax in mice (intestinal contents, LC-MS/MS); format: in vivo; conditions: mice; for intestinal tract concentration compared with RIF: oral treatment
Method: The maximum concentration in serum (Cmax) was obtained from the original data. […] Intestinal contents were weighted, and homogenized in methanol (100 mg/ml). The homogenate was centrifuged at 14,000 rpm for 10 min at 4° C.
The mass spectrometer was operated in the turbo ion spray mode with positive ion detection. The turbo ion spray temperature was maintained at 300° C., and a voltage of 4.8 kV was applied to the sprayer needle. N2 was used as the turbo ion spray and nebulizing gas.

[8] = WT mice, small intestine, 25 mg/kg/day p.o. 3 days
[9] = small intestine, 25 mg/kg/day p.o. 3 days

COC1/C=C/OC2(C)Oc3c(C)c(O)c4c(O)c(c5c(nc6cc(C)ccn65)c4c3C2=O)NC(=O)/C(C)=C\C=C\C(C)C(O)C(C)C(O)C(C)C(OC(C)=O)C1C (stereo not drawn) [RIFax, 4-Deoxy-4′-methylpyrido[1′,2′-1,2]imidazo[5,4-c]rifamycin SV]
CYP3A4 in a human hepatocyte model [1]: induction
Intestinal CYP3A11 expression [2, 8]: inhibited
Intestinal GSTA1 mRNA increase [2, 8]: 87%
Intestinal OATP2 mRNA [2, 8]: no significant induction
intestinal MRP2 mRNA [2, 8]: significantly suppressed
effect on hepatic PXR target genes ([2]; wild-type mice, liver, oral treatment): no significant effect
change in luciferase activity in the presence of PPARα [3]: no significant change
change in luciferase activity in the presence of FXR [4]: no significant change
CYP3A11, GSTA1, MRP2 and OATP2 mRNAs in small intestine ([5]; 25 mg/kg/day p.o. 3 days): all up-regulated
MRP2 in the gut ([5]; 25 mg/kg/day p.o. 3 days): only modestly induced
PXR target genes in the intestine ([5]; intestine, oral treatment): significant induction
GSTA1 in liver ([5]; liver, 25 mg/kg/day p.o. 3 days): increased
effect on hepatic PXR target genes ([5]; liver, oral treatment): no significant effect
Intestinal CYP3A11 increase compared to vehicle-treated mice [5, 9]: ~4 fold
Intestinal GSTA1 mRNA increase [5, 9]: 172%
Intestinal OATP2 mRNA increase [5, 9]: 3.4 fold
intestinal MRP2 mRNA [5, 9]: significant up-regulation
Tmax of 1′-OH-MDZ in RIFax pretreated mice vs control group [6]: significantly shorter
concentration in the intestinal tract (intestinal content) ([7]; 10 mg/kg single dose p.o.): up to 150 ug/g
concentration in the intestinal tract (intestinal content), molar ([7]; 10 mg/kg single dose p.o.): about 200 μM
intestinal tract concentration compared with RIF [7]: significantly higher
intestinal tract concentration compared with RIF ([7]; listed as Rifaximin): highly concentrated
concentration in the small intestine (content) ([7]; single oral dose 10 mg/kg): ~160 µg/g
time the small intestine concentration lasted following administration ([7]; single oral dose 10 mg/kg): 9 h
